Source: ChEMBL document CHEMBL3751695, “Cationic lipid-conjugated hydrocortisone as selective antitumor agent” (Eur J Med Chem, 2016)
Calls of active or inactive are those of the source. The calls are words filed in the database; no cut-off is given here.

What was measured:
[1] = Cytotoxicity against mouse NIH/3T3 cells after 72 hrs by MTT assay; format: cell-based; conditions: NIH3T3, 72 h
B16-F10 [2] = experiment: Effect on Bcl-2 expression in mouse B16F10 cells at 10 and 20 uM after 36 hrs by western blot analysis; format: functional, cell-based
B16-F10 [3] = experiment: Induction of apoptosis in mouse B16F10 cells assessed as increase in p53 expression at 20 uM after 36 hrs by […]; format: functional, cell-based
[4] = Induction of apoptosis in mouse NIH/3T3 cells assessed as viable cells at 20 uM after 24 hrs by annexin-V-FITC/propidium iodide staining based flow cytometry (reference value: 99.06 %); format: cell-based, NIH3T3; conditions: read-out: Activity
B16-F10 [5] = experiment: Induction of apoptosis in mouse B16F10 cells assessed as increase in cytochrome C level at 10 uM after 36 hrs by western blot analysis; format: functional, cell-based
Gallus gallus [6] = organism: Gallus gallus; experiment: Antiangiogenic activity in chicken embryo assessed as complete degradation of existing blood vessels at 80 uM after 4 hrs by microscopic analysis; format: functional, tissue-based; conditions: Blood vessel
B16-F10 [7] = experiment: Induction of apoptosis in mouse B16F10 cells assessed as early apoptotic cells at 20 uM after 24 hrs by annexin-V-FITC/propidium iodide staining based flow cytometry (reference value: 0.46 %); format: functional
B16-F10 [8] = experiment: Induction of apoptosis in mouse B16F10 cells assessed as increase in cytochrome C level at 20 uM after 36 hrs by western blot analysis; format: functional, cell-based
B16-F10 [9] = experiment: Antitumor activity in mouse B16F10 cells xenografted in C57BL/J mouse assessed as increase of apoptotic protein cleaved caspase 9 level in tumor lysates at 10 mg/kg, ip by western blot analysis; format: functional, organism-based; conditions: Neoplasm, Lysate
B16-F10 [10] = experiment: Antitumor activity in mouse B16F10 cells xenografted in C57BL/J mouse assessed as increase of apoptotic protein Bax level in tumor lysates at 10 mg/kg, ip by western blot analysis; format: functional, organism-based; conditions: Neoplasm, Lysate
[11] = Cell cycle arrest in mouse B16F10 cells assessed as increase in cyclin B1 level at 20 uM by flow cytometric analysis; format: functional, cell-based; conditions: B16-F10
[12] = Induction of apoptosis in mouse NIH/3T3 cells assessed as early apoptotic cells at 20 uM after 24 hrs by annexin-V-FITC/propidium iodide staining based flow cytometry (reference value: 0.43 %); format: cell-based; conditions: nih3t3, 24 h
B16-F10 [13] = experiment: Antitumor activity against mouse B16F10 cells xenografted in C57BL/J mouse assessed as inhibition of tumor growth at 10 mg/kg, ip; format: functional, organism-based
B16-F10 [14] = experiment: Antitumor activity in mouse B16F10 cells xenografted in C57BL/J mouse assessed as increase of apoptotic protein p53 level in tumor lysates at 10 mg/kg, ip by western blot analysis; format: functional, organism-based; conditions: Neoplasm, Lysate
[15] = Cytotoxicity against human SKOV3 cells after 72 hrs by MTT assay; format: functional, cell-based; conditions: SK-OV-3, 72 h
Mus musculus = experiment: Toxicity in C57BL/J mouse xenografted with mouse B16F10 cells assessed as animal survival at 10 mg/kg, ip measured upto 45 days post tumor inoculation; format: organism-based, B16-F10; conditions: in vivo, 1080 h
MDA-MB-231 [16] = experiment: Induction of apoptosis in human MDA-MB-231 cells assessed as necrotic cells at 20 uM after 24 hrs by annexin-V-FITC/propidium iodide staining based flow cytometry (reference value: 5.40 %); format: functional
MDA-MB-231 [17] = experiment: Induction of apoptosis in human MDA-MB-231 cells assessed as early apoptotic cells at 20 uM after 24 hrs by annexin-V-FITC/propidium iodide staining based flow cytometry (reference value: 0.58 %); format: functional
B16-F10 [18] = experiment: Induction of apoptosis in mouse B16F10 cells assessed as necrotic cells at 20 uM after 24 hrs by annexin-V-FITC/propidium iodide staining based flow cytometry (reference value: 1.41 %); format: functional
A549 [19] = experiment: Induction of apoptosis in human A549 cells assessed as necrotic cells at 20 uM after 24 hrs by annexin-V-FITC/propidium iodide staining based flow cytometry (reference value: 3.23 %); format: functional
HeLa = experiment: Cytotoxicity against human HeLa cells after 72 hrs by MTT assay; format: functional, cell-based
Gallus gallus [20] = organism: Gallus gallus; experiment: Antiangiogenic activity in chicken embryo assessed as inhibition of neovascularization at 40 uM after 4 hrs by microscopic analysis; format: functional, tissue-based
A549 [21] = experiment: Cytotoxicity against human A549 cells after 72 hrs by MTT assay; format: functional, cell-based; conditions: A549, 72 h
[22] = Induction of apoptosis in mouse NIH/3T3 cells assessed as necrotic cells at 20 uM after 24 hrs by annexin-V-FITC/propidium iodide staining based flow cytometry (reference value: 0.24 %); format: cell-based; conditions: nih3t3, 24 h
RAW264.7 [23] = experiment: Induction of apoptosis in mouse RAW264.7 cells assessed as late apoptotic cells at 20 uM after 24 hrs by annexin-V-FITC/propidium iodide staining based flow cytometry (reference value: 5.64 %); format: cell-based; conditions: raw264.7, 24 h
A549 [24] = experiment: Induction of apoptosis in human A549 cells assessed as viable cells at 20 uM after 24 hrs by annexin-V-FITC/propidium iodide staining based flow cytometry (reference value: 87.96 %); format: functional; conditions: A549, 24 h, read-out: Activity
B16-F10 [25] = experiment: Induction of apoptosis in mouse B16F10 cells assessed as increased Bax expression at 20 uM after 36 hrs by western blot analysis; format: functional, cell-based
A549 [26] = experiment: Cytotoxicity against human A549 cells at 5 and 10 uM after 72 hrs cells pretreated with 50 uM of RU486 for 4 hrs by MTT assay; format: functional, cell-based
B16-F10 [27] = experiment: Induction of apoptosis in mouse B16F10 cells assessed as increase in ratio of Bax/Bcl2 level at 10 uM after 36 hrs by western blot analysis (reference value: 0.2); format: functional
MCF7 = experiment: Cytotoxicity against human MCF7 cells after 72 hrs by MTT assay; format: functional, cell-based; conditions: MCF7, 72 h
B16-F10 [28] = experiment: Inhibition of cell migration in mouse B16F10 cells at 20 uM after 36 hrs by wound healing assay; format: functional, cell-based
[29] = Cell cycle arrest in mouse B16F10 cells assessed as accumulation at subG0/G1 phase at 20 uM after 24 hrs by propidium iodide staining based flow cytometry (reference value: 40.7 %); format: functional; conditions: B16-F10
B16-F10 [30] = experiment: Antitumor activity in mouse B16F10 cells xenografted in C57BL/J mouse assessed as increase of apoptotic protein cleaved caspase 7 level in tumor lysates at 10 mg/kg, ip by western blot analysis; format: functional, organism-based; conditions: Neoplasm, Lysate
RAW264.7 [31] = experiment: Induction of apoptosis in mouse RAW264.7 cells assessed as necrotic cells at 20 uM after 24 hrs by annexin-V-FITC/propidium iodide staining based flow cytometry (reference value: 1.81%); format: cell-based; conditions: raw264.7, 24 h
[32] = Induction of apoptosis in mouse RAW264.7 cells assessed as viable cells at 20 uM after 24 hrs by annexin-V-FITC/propidium iodide staining based flow cytometry (reference value: 89.11 %); format: cell-based; conditions: read-out: Activity
[33] = Induction of apoptosis in mouse NIH/3T3 cells assessed as late apoptotic cells at 20 uM after 24 hrs by annexin-V-FITC/propidium iodide staining based flow cytometry (reference value: 0.28 %); format: cell-based; conditions: nih3t3, 24 h
B16-F10 [34] = experiment: Antitumor activity in mouse B16F10 cells xenografted in C57BL/J mouse assessed as induction of apoptosis in tumor vasculature at 10 mg/kg, ip by TUNEL assay; format: functional, organism-based

## CCCCCCCCCCCCCCCC[N+](C)(CCCCCCCCCCCCCCCC)CCNC(=O)[C@@]1(O)CC[C@H]2[C@@H]3CCC4=CC(=O)CC[C@]4(C)[C@H]3[C@@H](O)C[C@@]21C.[Cl-]
[1]
  IC50: 20 µM
B16-F10 [2]
  Activity: inactive
B16-F10 [3]
  Activity: Active
[4]
  viability at 24 h, 20 µM: 90.4%
B16-F10 [5]
  Activity: Active
Gallus gallus [6]
  Activity: Active
B16-F10 [7]
  Activity: 1.67%
B16-F10 [8]
  Activity: Active
B16-F10 [9]
  Activity: Active
B16-F10 [10]
  Activity: Active
[11]
  Activity: Active
[12]
  Activity: 2.08%
B16-F10 [13]
  inhibition: Active
B16-F10 [14]
  Activity: Active
[15]
  IC50: 3.5 µM
Mus musculus
  Activity: Non-toxic
MDA-MB-231 [16]
  Activity: 4.45%
MDA-MB-231 [17]
  Activity: 4.62%
B16-F10 [18]
  Activity: 8.52%
A549 [19]
  Activity: 1.36%
HeLa
  IC50: 5.2 µM
Gallus gallus [20]
  inhibition: Active
A549 [21]
  IC50: 2.5 µM
[22]
  Activity: 0.51%
RAW264.7 [23]
  Activity: 2.83%
A549 [24]
  viability at 20 µM: 25.1%
B16-F10 [25]
  Activity: Active
A549 [26]
  Activity: Active
B16-F10 [27]
  Ratio: 0.4
MCF7
  IC50: 3.7 µM
B16-F10 [28]
  inhibition: Active
[29]
  Activity: 15.1%
B16-F10 [30]
  Activity: Active
RAW264.7 [31]
  Activity: 1.36%
[32]
  viability at 24 h, 20 µM: 94.2%
[33]
  Activity: 0.55%
B16-F10 [34]
  Activity: Active
